From US11267822B2, “BET bromodomain protein degraders with cleavable linkers” (THE REGENTS OF THE UNIVERSITY OF MICHIGAN, priority 2017, dated 2022)

Assays:
[1] = Pharmacokinetics in RS4;11 tumor-bearing mice (plasma and tumor concentrations); assay type: in vivo; conditions: for Cpd. No. 15 Concentration in plasma: IV 10 mg/kg Cpd. No. 15, RS4;11 tumor-bearing mice
From the text: The pharmacokinetics of Cpd. No. 15 in RS4;11 tumor-bearing mice show it is converted to Cpd. No. 52 in plasma and tumor tissue. BLOQ=below limit of detection; nd=not determined

[2] = tested on: BET protein; assay: Pharmacodynamic effect in RS4;11 tumor tissue in mice (BET protein degradation); assay type: in vivo; conditions: RS4;11 tumor-bearing mice, intravenous dosing at 10 mg/kg
From the text: FIG. 1 is an illustration showing the pharmacodynamic effect of Cpd. No. 15 in RS4;11 tumor tissue in mice.
FIG. 2 is an illustration showing the pharmacodynamic effect of Cpd. No. 16 in RS4;11 tumor tissue in mice.
The pharmacodynamic effect of Cpd. No. 15 and Cpd.

[3] = tested on: MOLM13; assay: Cell growth inhibition, CellTiter-Glo Luminescent Cell Viability Assay, MOLM13; assay type: cell-based; conditions: MOLM13 cells, 4 days
Procedure: (§1) Cell growth inhibitory activity of representative Compounds of the Disclosure was determined using the CellTiter-Glo® Luminescent Cell Viability Assay. Cells were seeded in 384-well white opaque cell culture plates at a density of 2,000 cells/well with serially diluted compounds and incubated at 37° C. in an atmosphere of 95% air and 5% CO2 for 4 days. Cell viability was determined using the CellTiter-Glo® Luminescent Cell Viability Assay Kit (Promega, Madison, Wis.) according to the manufacture's instruction. Briefly, a volume of CellTiter-Glo® Reagent equal to the volume of cell culture medium was added to each well, and then the plates were incubated at room temperature for 10-20 minutes. The luminescent signal was measured using a Tecan Infinite M1000 multimode microplate reader (Tecan, Morrisville, N.C.). The half maximal inhibitory concentration (IC50) in Table 3 was calculated using the GraphPad Prism 5 software (GraphPad Software, La Jolla, Calif.).

[4] = tested on: MDA-MB-231; assay: Cell growth inhibition, CellTiter-Glo Luminescent Cell Viability Assay, MDA-MB-231; assay type: cell-based; conditions: MDA-MB-231 cells, 4 days
Procedure: as §1

For `Cc1nnc2n1-c1sc(C#Cc3cnn(CCCC(=O)OCCCOc4cccc5c4CN(C4CCC(=O)NC4=O)C5=O)c3)c(Cc3ccccc3)c1COC2` (stereo not shown) [Cpd. No. 15, 3-((2-(2,6-dioxopiperidin-3-yl)-1-oxoisoindolin-4-yl)oxy)propyl 4-(4-((3-benzyl-9-methyl-4H,6H-thieno[2,3-e][1,2,4]triazolo[3,4-c][1,4]oxazepin-2-yl)ethynyl)-1H-pyrazol-1-yl)butanoate], the “Cpd. No. 15 Concentration in tumor” value ([1]; IV 10 mg/kg Cpd. No. 15, 1 h, Mouse 1 L tumor) was “BLOQ”, the “Cpd. No. 15 Concentration in tumor” value ([1]; IV 10 mg/kg Cpd. No. 15, 1 h, Mouse 1 R tumor) was “BLOQ” and the “Cpd. No. 15 Concentration in tumor” value ([1]; IV 10 mg/kg Cpd. No. 15, 1 h, Mouse 2 L tumor) was “BLOQ”. For the same compound, the “Cpd. No. 15 Concentration in tumor” value ([1]; IV 10 mg/kg Cpd. No. 15, 1 h, Mouse 2 R tumor) was “BLOQ”, the “Cpd. No. 15 Concentration in tumor” value ([1]; IV 10 mg/kg Cpd. No. 15, 3 h, Mouse 1 L tumor) was “BLOQ” and the “Cpd. No. 15 Concentration in tumor” value ([1]; IV 10 mg/kg Cpd. No. 15, 3 h, Mouse 1 R tumor) was “BLOQ”. For the same compound, the “Cpd. No. 15 Concentration in tumor” value ([1]; IV 10 mg/kg Cpd. No. 15, 3 h, Mouse 2 L tumor) was “BLOQ”, the “Cpd. No. 15 Concentration in tumor” value ([1]; IV 10 mg/kg Cpd. No. 15, 3 h, Mouse 2 R tumor) was “BLOQ” and the “Cpd. No. 15 Concentration in plasma” value ([1]; 1 h, mouse 1) was “BLOQ”. For the same compound, the “Cpd. No. 15 Concentration in plasma” value ([1]; 1 h, mouse 2) was “BLOQ”, the “Cpd. No. 15 Concentration in plasma” value ([1]; 3 h, mouse 1) was “BLOQ” and the “Cpd. No. 15 Concentration in plasma” value ([1]; 3 h, mouse 2) was “BLOQ”. For the same compound, the “Conversion (metabolism) in plasma and tumor tissue” value ([1]; RS4;11 tumor-bearing mice, IV 10 mg/kg) was “converted to Cpd. No. 52 in plasma and tumor tissue” and the “Pharmacodynamic effect: BET protein degradation in tumor tissue” value [2] was “induce BET protein degradation in tumor tissue”.
With `Cc1nnc2n1-c1sc(C#Cc3cnn(CCCC(=O)OCCC#Cc4cccc5c4CN(C4CCC(=O)NC4=O)C5=O)c3)c(Cc3ccccc3)c1COC2` (stereo not shown) [Cpd. No. 16, 4-(2-(2,6-dioxopiperidin-3-yl)-1-oxoisoindolin-4-yl)but-3-yn-1-yl 4-(4-((3-benzyl-9-methyl-4H,6H-thieno[2,3-e][1,2,4]triazolo[3,4-c][1,4]oxazepin-2-yl)ethynyl)-1H-pyrazol-1-yl)butanoate] the IC50 ([3]; Homo sapiens, MOLM-13, 96 h) was 0.4 nM, the IC50 [3] was 0.2 nM and the “Pharmacodynamic effect: BET protein degradation in tumor tissue” value [2] was “induce BET protein degradation in tumor tissue”. The IC50 ([4]; Homo sapiens, MDA-MB-231, 96 h) was 1.5 nM and the IC50 [4] was 0.9 nM.
In the case of `Cc1c(C#Cc2cnn(CCCC(=O)OCCCOc3cccc4c3CN(C3CCC(=O)NC3=O)C4=O)c2)sc2c1C(c1ccc(Cl)cc1)=N[C@@H](C)c1nnc(C)n1-2` (stereo partly drawn) [Cpd. No. 5, 3-((2-(2,6-dioxopiperidin-3-yl)-1-oxoisoindolin-4-yl)oxy)propyl 4-(4-(((S)-4-(4-chlorophenyl)-3,6,9-trimethyl-6H-thieno[3,2-f][1,2,4]triazolo[4,3-a][1,4]diazepin-2-yl)ethynyl)-1H-pyrazol-1-yl)butanoate], the IC50 ([3]; Homo sapiens, MOLM-13, 96 h) was 0.1 nM and the IC50 ([4]; Homo sapiens, MDA-MB-231, 96 h) was 0.1 nM.
`Cc1c(C#Cc2cnn(CCCC(=O)OCCN3CCC(Nc4cccc5c4CN(C4CCC(=O)NC4=O)C5=O)CC3)c2)sc2c1C(c1ccc(Cl)cc1)=N[C@@H](C)c1nnc(C)n1-2` (stereo partly drawn) [Cpd. No. 11, 2-(4-((2-(2,6-dioxopiperidin-3-yl)-1-oxoisoindolin-4-yl)amino)piperidin-1-yl)ethyl 4-(4-(((S)-4-(4-chlorophenyl)-3,6,9-trimethyl-6H-thieno[3,2-f][1,2,4]triazolo[4,3-a][1,4]diazepin-2-yl)ethynyl)-1H-pyrazol-1-yl)butanoate] showed an IC50 ([3]; Homo sapiens, MOLM-13, 96 h) of 0.06 nM and an IC50 ([4]; Homo sapiens, MDA-MB-231, 96 h) of 0.1 nM.
Work on `Cc1nnc2n1-c1sc(C#Cc3cnn(CCOC(=O)CCCCc4cccc5c4CN(C4CCC(=O)NC4=O)C5=O)c3)c(Cc3ccccc3)c1COC2` (stereo not shown) [compound 32, 2-(4-((3-benzyl-9-methyl-4H,6H-thieno[2,3-e][1,2,4]triazolo[3,4-c][1,4]oxazepin-2-yl)ethynyl)-1H-pyrazol-1-yl)ethyl 5-(2-(2,6-dioxopiperidin-3-yl)-1-oxoisoindolin-4-yl)pentanoate] yielded an IC50 ([3]; Homo sapiens, MOLM-13, 96 h) of 0.6 nM and an IC50 ([4]; Homo sapiens, MDA-MB-231, 96 h) of 25.8 nM.
In the case of `Cc1nnc2n1-c1sc(C#Cc3ccn(CCC(=O)OCCC#Cc4cccc5c4CN(C4CCC(=O)NC4=O)C5=O)n3)c(Cc3ccccc3)c1COC2` (stereo not shown) [compound 28, 4-(2-(2,6-dioxopiperidin-3-yl)-1-oxoisoindolin-4-yl)but-3-yn-1-yl 3-(3-((3-benzyl-9-methyl-4H,6H-thieno[2,3-e][1,2,4]triazolo[3,4-c][1,4]oxazepin-2-yl)ethynyl)-1H-pyrazol-1-yl)propanoate], the IC50 ([3]; Homo sapiens, MOLM-13, 96 h) was 0.2 nM and the IC50 ([4]; Homo sapiens, MDA-MB-231, 96 h) was 2 nM.
`Cc1c(C#Cc2cnn(CC(=O)OCC#Cc3cccc4c3CN(C3CCC(=O)NC3=O)C4=O)c2)sc2c1C(c1ccc(Cl)cc1)=N[C@@H](C)c1nnc(C)n1-2` (stereo partly drawn) [Cpd. No. 4, 3-(2-(2,6-dioxopiperidin-3-yl)-1-oxoisoindolin-4-yl)prop-2-yn-1-yl 2-(4-(((S)-4-(4-chlorophenyl)-3,6,9-trimethyl-6H-thieno[3,2-f][1,2,4]triazolo[4,3-a][1,4]diazepin-2-yl)ethynyl)-1H-pyrazol-1-yl)acetate] gave an IC50 [3] of 17.3 nM and an IC50 [4] of 276 nM.
With `Cc1nnc2n1-c1sc(C#Cc3cnn(CCCC(=O)OCCCN4CCC(Nc5cccc6c5CN(C5CCC(=O)NC5=O)C6=O)CC4)c3)c(Cc3ccccc3)c1COC2` (stereo not shown) [compound 25, 3-(4-((2-(2,6-dioxopiperidin-3-yl)-1-oxoisoindolin-4-yl)amino)piperidin-1-yl)propyl 4-(4-((3-benzyl-9-methyl-4H,6H-thieno[2,3-e][1,2,4]triazolo[3,4-c][1,4]oxazepin-2-yl)ethynyl)-1H-pyrazol-1-yl)butanoate] the IC50 ([3]; Homo sapiens, MOLM-13, 96 h) was 2.4 nM and the IC50 ([4]; Homo sapiens, MDA-MB-231, 96 h) was 7.3 nM.
